Measurements as given in patent US5665704A, “Receptor specific atrial natriuretic peptides” (Genentech, Inc., priority 1995, dated 1997).
Read-outs that look alike come from different tables or passages of the source. Bridge positions count the residues as written; N and C are the ends. Square brackets hold non-standard residues; d marks the D form. Peptide text beside a SMILES is read from it. ξ: configuration not given here. ξPhg = NC(C(=O)O)c1ccccc1; Mpa = O=C(O)CCS

Experiments:
[1] = biological target: T1, hNPR-A (Homo sapiens, UniProt P16066); test: Binding affinity for hNPR-A (competitive displacement of I^125 labeled wild-type ANF)
T1 sequence (P16066 33-1061): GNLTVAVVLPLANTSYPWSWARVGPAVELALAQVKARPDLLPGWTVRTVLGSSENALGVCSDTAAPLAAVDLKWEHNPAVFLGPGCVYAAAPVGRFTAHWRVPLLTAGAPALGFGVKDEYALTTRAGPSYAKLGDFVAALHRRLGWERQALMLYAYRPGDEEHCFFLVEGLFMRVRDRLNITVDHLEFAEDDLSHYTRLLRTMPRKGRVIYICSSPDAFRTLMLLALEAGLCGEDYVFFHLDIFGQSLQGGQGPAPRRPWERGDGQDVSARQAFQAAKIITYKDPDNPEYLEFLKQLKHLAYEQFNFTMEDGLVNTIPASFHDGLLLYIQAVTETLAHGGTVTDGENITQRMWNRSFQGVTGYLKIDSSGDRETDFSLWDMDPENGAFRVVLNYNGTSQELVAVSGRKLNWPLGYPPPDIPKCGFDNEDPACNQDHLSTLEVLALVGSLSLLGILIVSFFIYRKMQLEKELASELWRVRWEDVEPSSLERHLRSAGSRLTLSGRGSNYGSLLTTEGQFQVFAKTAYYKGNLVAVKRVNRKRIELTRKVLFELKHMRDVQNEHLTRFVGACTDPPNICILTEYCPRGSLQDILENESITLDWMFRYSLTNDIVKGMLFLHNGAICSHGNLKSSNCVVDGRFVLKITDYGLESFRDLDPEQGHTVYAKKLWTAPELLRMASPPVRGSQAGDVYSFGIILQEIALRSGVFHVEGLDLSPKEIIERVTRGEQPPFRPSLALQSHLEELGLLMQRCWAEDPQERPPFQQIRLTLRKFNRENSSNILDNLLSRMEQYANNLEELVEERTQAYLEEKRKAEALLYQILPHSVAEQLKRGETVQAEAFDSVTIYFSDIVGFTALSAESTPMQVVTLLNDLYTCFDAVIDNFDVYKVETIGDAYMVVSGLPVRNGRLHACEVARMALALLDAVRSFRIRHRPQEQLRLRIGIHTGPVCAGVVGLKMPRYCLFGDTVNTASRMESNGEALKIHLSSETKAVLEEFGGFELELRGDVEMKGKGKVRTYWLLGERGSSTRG

[2] = biological target: T2, hNPR-C (Homo sapiens, UniProt P17342); test: Binding affinity for clearance receptor hNPR-C
T2 sequence (P17342 27-541): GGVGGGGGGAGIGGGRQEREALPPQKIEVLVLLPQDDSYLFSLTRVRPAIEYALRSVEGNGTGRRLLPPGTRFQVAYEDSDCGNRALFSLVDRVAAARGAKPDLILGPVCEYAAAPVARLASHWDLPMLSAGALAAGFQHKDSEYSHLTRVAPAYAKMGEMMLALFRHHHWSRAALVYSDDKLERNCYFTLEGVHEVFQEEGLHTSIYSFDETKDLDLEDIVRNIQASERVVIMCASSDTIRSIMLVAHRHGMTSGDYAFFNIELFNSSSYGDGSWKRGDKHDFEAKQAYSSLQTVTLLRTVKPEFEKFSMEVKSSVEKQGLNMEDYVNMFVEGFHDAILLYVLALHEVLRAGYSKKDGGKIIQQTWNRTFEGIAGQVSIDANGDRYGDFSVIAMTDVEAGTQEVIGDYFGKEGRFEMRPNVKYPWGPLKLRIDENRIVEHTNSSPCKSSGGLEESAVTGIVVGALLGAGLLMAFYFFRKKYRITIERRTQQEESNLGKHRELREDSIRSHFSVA
From the text: For assay systems to measure binding of hANF and the compounds of this invention to hNPR-C see: Schank, D. B., et al., Biochem. Biophys. Res. Comm. 127:433-442 (1985); Scarborough, R. M., J. Biol. Chem. 261:12960-12964 and WO 90/01940.

[3] = biological target: T3, Human endopeptidase 24.11 (hNEP) (Homo sapiens, UniProt P08473); test: Degradation of ANF variants by human NEP, half-life by HPLC (Example 22)
Description: (§1) The half-life of various ANF variants was measured according to the following procedure.
(§2) ANF Solution: An accurately weighed amount of ANF or variant thereof was diluted with HEPES buffer (5 ml of 1M HEPES Buffer and 0.1 ml of Tween 20 diluted to a 100 ml volume with DI water) to make a 0.5 mg/ml solution.
(§3) hNEP/HEPES Solution: 75 μl of a 1 mg/ml solution of hNEP (see U.S. Pat. No. 4,960,700) is dissolved in 992.5 μl of HEPES buffer (as described above) and vortex mixed. The resulting mixture is stored in a silylated Eppendorf tube and periodically checked for activity against an ANF peptide standard.
(§4) Assay conditions: 150 μl of an ANF solution in the HEPES buffer is diluted with 820 μl HEPES buffer and vortex mixed (1 sec). Careful note of the time is taken as 30 μl of the hNEP/HEPES solution is added and the solution is vortex mixed for 1 sec. and analyzed by periodic removal of constant volume aliquots by the HPLC autosampler. A 2.5 cm×50 cm, C-18 reversed-phase column (15 micron, 300Å]) was used and elution was achieved by using a shallow gradient of increasing acetonitrile. The elution conditions consisted of a 10% to 50% acetonitrile (containing 0.1% TFA) gradient at 0.5% min.^-1. The aqueous phase was 0.1% TFA in water. The peak area of the ANP peptide is recorded at these periodic intervals and a half-life is determined from these values.

[4] = biological target: T3, Human endopeptidase 24.11 (hNEP); test: in vitro; conditions: isolated enzyme
Description: as §1, §2, §3, §4

T3 sequence (P08473 whole entry): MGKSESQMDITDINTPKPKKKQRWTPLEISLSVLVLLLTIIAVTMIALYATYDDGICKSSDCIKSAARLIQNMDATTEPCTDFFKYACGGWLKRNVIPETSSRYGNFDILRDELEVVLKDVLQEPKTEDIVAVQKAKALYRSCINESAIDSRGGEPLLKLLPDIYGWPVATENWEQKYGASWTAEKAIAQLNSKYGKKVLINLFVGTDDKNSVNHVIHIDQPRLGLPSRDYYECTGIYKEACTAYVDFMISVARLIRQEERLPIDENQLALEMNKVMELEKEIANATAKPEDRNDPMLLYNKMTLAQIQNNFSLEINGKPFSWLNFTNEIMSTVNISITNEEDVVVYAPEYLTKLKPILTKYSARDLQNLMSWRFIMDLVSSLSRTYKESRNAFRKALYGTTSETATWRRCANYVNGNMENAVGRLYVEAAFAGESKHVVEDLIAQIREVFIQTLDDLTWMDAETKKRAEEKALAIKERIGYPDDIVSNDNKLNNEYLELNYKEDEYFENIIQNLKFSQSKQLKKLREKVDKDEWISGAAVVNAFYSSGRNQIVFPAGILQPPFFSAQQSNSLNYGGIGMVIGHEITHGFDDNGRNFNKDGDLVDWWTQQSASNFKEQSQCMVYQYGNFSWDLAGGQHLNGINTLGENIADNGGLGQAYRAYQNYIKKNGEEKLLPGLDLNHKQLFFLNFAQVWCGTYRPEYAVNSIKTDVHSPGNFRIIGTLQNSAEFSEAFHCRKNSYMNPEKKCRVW

**Q.** What does the source list for `CC[C@H](C)[C@@H]1NC(=O)[C@H](CCCNC(=N)N)NC(=O)[C@H](CC(=O)O)NC(=O)[C@H]([C@@H](C)CC)NC(=O)[C@H](CCCNC(=N)N)NC(=O)CNC(=O)CNC(=O)[C@H](Cc2ccccc2)NC(=O)[C@@H](NC(=O)[C@H](CO)NC(=O)[C@H](CO)NC(=O)[C@H](CCCNC(=N)N)NC(=O)[C@H](CCCNC(=N)N)NC(=O)[C@H](CC(C)C)NC(=O)[C@H](CO)NC(=O)[C@H](CCCNC(=N)N)NC(=O)[C@@H]2CCCN2C(=O)[C@H](C)NC(=O)[C@@H](N)[C@@H](C)O)CSSC[C@@H](C(=O)N[C@@H](CC(N)=O)C(=O)N[C@@H](CO)C(=O)N[C@@H](Cc2ccccc2)C(=O)N[C@@H](CCCNC(=N)N)C(=O)N[C@@H](Cc2ccc(O)cc2)C(=O)O)NC(=O)CNC(=O)[C@H](CC(C)C)NC(=O)CNC(=O)[C@H](CO)NC(=O)[C@H](CCC(N)=O)NC(=O)[C@H](C)NC(=O)[C@H](CCCNC(=N)N)NC1=O` [ANF23] (H-TAPRSLRRSSCFGGRIDRIRAQSGLGCNSFRY-OH; disulfide 11-27)?
**A.** IC50 [1]: 44 pM; IC50 [2]: 4190 pM; Half-Life ([3]; FIG. 6: ANF variants 0.5 mg/ml, endopeptidase 11.24 (NEP) 0.225 mg/ml): 12.3 h

**Q.** `CC[C@H](C)[C@@H]1NC(=O)[C@H](CCCNC(=N)N)NC(=O)[C@H](CC(=O)O)NC(=O)[C@H]([C@@H](C)CC)NC(=O)[C@H](CC(=O)O)NC(=O)CNC(=O)[C@H](CCCNC(=N)N)NC(=O)[C@H](Cc2ccccc2)NC(=O)[C@@H](NC(=O)[C@H](CO)NC(=O)[C@H](CO)NC(=O)[C@H](CCCNC(=N)N)NC(=O)[C@H](CCCNC(=N)N)NC(=O)[C@H](CC(C)C)NC(=O)[C@@H](N)CO)CSSC[C@@H](C(=O)N[C@@H](CC(N)=O)C(=O)N[C@@H](CO)C(=O)N[C@@H](Cc2ccccc2)C(=O)N[C@@H](CCCNC(=N)N)C(=O)N[C@@H](Cc2ccc(O)cc2)C(=O)O)NC(=O)CNC(=O)[C@H](CC(C)C)NC(=O)CNC(=O)[C@H](CO)NC(=O)[C@H](CCC(N)=O)NC(=O)[C@H](C)NC(=O)[C@H](CCCNC(=N)N)NC1=O` [ANF28] (H-SLRRSSCFRGDIDRIRAQSGLGCNSFRY-OH; disulfide 7-23) was tested. Which half-life at 32 nM/ml ([3]; human) did it give?
**A.** 9.52 h

**Q.** `CC[C@H](C)[C@@H]1NC(=O)[C@H](CCCNC(=N)N)NC(=O)CNC(=O)CNC(=O)[C@H](Cc2ccccc2)NC(=O)[C@@H](C(C)C)NC(=O)[C@@H](NC(=O)[C@H](CO)NC(=O)[C@@H](N)CO)CSSC[C@@H](C(=O)N[C@@H](Cc2ccccc2)C(=O)N[C@@H](CCCNC(=N)N)C(=O)O)NC(=O)[C@H]([C@@H](C)CC)NC(=O)[C@H](CCCNC(=N)N)NC(=O)[C@H](CC(=O)O)NC1=O` [ANF40] (H-SSC[dV]FGGRIDRICFR-OH; disulfide 3-13 (inferred); N-terminus and C-terminus assumed) was tested. Which half-life at 0.5 mg/ml ([3]; human) did it give?
**A.** 9.95 h

**Q.** How did the half-life at 32 nM/ml [4] turn out when `CC[C@H](C)[C@@H]1NC(=O)[C@H](CCCNC(=N)N)NC(=O)[C@H](CC(=O)O)NC(=O)[C@H]([C@@H](C)CC)NC(=O)[C@H](CC(=O)O)NC(=O)CNC(=O)[C@@H](C)NC(=O)[C@H](Cc2ccccc2)NC(=O)CCSSC[C@@H](C(=O)N[C@@H](CC(N)=O)C(=O)N[C@@H](CO)C(=O)N[C@@H](Cc2ccccc2)C(=O)N[C@@H](CCCNC(=N)N)C(=O)N[C@@H](Cc2ccc(O)cc2)C(=O)O)NC(=O)CNC(=O)[C@H](CC(C)C)NC(=O)CNC(=O)[C@H](CO)NC(=O)[C@H](CCC(N)=O)NC(=O)[C@H](C)NC(=O)[C@H](CCCNC(=N)N)NC1=O` [ANF92] ([Mpa]F[dA]GDIDRIRAQSGLGCNSFRY-OH; disulfide 1-17) was run?
**A.** 1.77 h

**Q.** For `CC[C@H](C)[C@@H]1NC(=O)[C@H](CCCNC(=N)N)NC(=O)[C@H](CC(=O)O)NC(=O)[C@H]([C@@H](C)CC)NC(=O)[C@H](CO)NC(=O)CNC(=O)[C@H]([C@@H](C)O)NC(=O)C(c2ccccc2)NC(=O)[C@@H](NC(=O)[C@H](CO)NC(=O)[C@H](CO)NC(=O)[C@H](CCCNC(=N)N)NC(=O)[C@H](CCCNC(=N)N)NC(=O)[C@H](CC(C)C)NC(=O)[C@@H](N)CO)CSSC[C@@H](C(=O)N[C@@H](CC(N)=O)C(=O)N[C@@H](CO)C(=O)N[C@@H](Cc2ccccc2)C(=O)N[C@@H](CCCNC(=N)N)C(=O)N[C@@H](Cc2ccc(O)cc2)C(=O)O)NC(=O)CNC(=O)[C@H](CC(C)C)NC(=O)CNC(=O)[C@H](CO)NC(=O)[C@H](CCC(N)=O)NC(=O)[C@H](C)NC(=O)[C@H](CCCNC(=N)N)NC1=O` (some centres unmarked) [ANF100-1] (H-SLRRSSC[ξPhg]TGSIDRIRAQSGLGCNSFRY-OH; disulfide 7-23), which IC50 ([1]; Table I, read-out: Binding Affinity IC50 (pM) hNPR-A) is on record?
**A.** 187 pM

**Q.** And the IC50 ([2]; Table I, read-out: Binding Affinity IC50 (pM) hNPR-C)?
**A.** 3.23e+06 pM
